From ChEMBL document CHEMBL1129940, “Cytotoxicity of platinum (II) dinuclear complexes with 1-alkylthymine ligands against mouse sarcoma 180 cells” (J Med Chem, 1997) come the findings set out here.

The test concerns CCRF S-180. Description: In vitro inhibitory concentration against growth of mouse sarcoma 180 (S-180) cells. The test is classed as functional, cell-based.

A word on the IC50: it is the midpoint of a concentration-inhibition curve. In turn, CISPLATIN yielded an IC50 of 1070 nM.
